Measurements from the supplement of paper PMC10307832.

How the values were obtained:
Experiment in all cases: relative viability (nuclei count vs DMSO), 5 days (fraction); higher = more cells survive
A-427 = tested on: A-427
How it was run: (§1)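 Lung cancer cell lines in 1536-well plates were dosed by pin tool the day after seeding, either with one drug alone or with a fixed anchor-drug dose plus five library-drug doses (not always all listed) in √10 steps. After 5 days, cells were fixed and their nuclei stained in one step (final 0.05% Triton X-100, 1% formaldehyde, 1 ug/ml Hoechst), then counted on 4× images. Relative viability is the nuclei count in treated wells divided by that in vehicle wells. Values are medians of duplicate plates.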

COR-L 105 = tested on: COR-L 105
How it was run: as §1

H3255 = tested on: H3255
How it was run: as §1

HCC-44 = tested on: HCC-44
How it was run: as §1

HCC-827 = tested on: HCC-827
How it was run: as §1

LCLC-103H = tested on: LCLC-103H
How it was run: as §1

LOU-NH91 = tested on: LOU-NH91
How it was run: as §1

LXF-289 = tested on: LXF-289
How it was run: as §1

NCI-H1792 = tested on: NCI-H1792
How it was run: as §1

NCI-H1793 = tested on: NCI-H1793
How it was run: as §1

NCI-H1915 = tested on: NCI-H1915
How it was run: as §1

NCI-H1944 = tested on: NCI-H1944
How it was run: as §1

NCI-H1975 = tested on: NCI-H1975
How it was run: as §1

NCI-H1993 = tested on: NCI-H1993
How it was run: as §1

NCI-H2023 = tested on: NCI-H2023
How it was run: as §1

NCI-H2087 = tested on: NCI-H2087
How it was run: as §1

NCI-H2170 = tested on: NCI-H2170
How it was run: as §1

NCI-H358 = tested on: NCI-H358
How it was run: as §1

NCI-H520 = tested on: NCI-H520
How it was run: as §1

NCI-H522 = tested on: NCI-H522
How it was run: as §1

SK-MES-1 = tested on: SK-MES-1
How it was run: as §1

SW 1573 = tested on: SW 1573
How it was run: as §1

SW 900 = tested on: SW 900
How it was run: as §1

## CCNC(=O)c1noc(-c2cc(C(C)C)c(O)cc2O)c1-c1ccc(CN2CCOCC2)cc1 [Luminespib] + O=C(c1cc(Cc2n[nH]c(=O)c3ccccc23)ccc1F)N1CCN(C(=O)C2CC2)CC1 [Olaparib] (partner 8 µM)
A-427; first compound 0.002 µM
  relative viability: 0.782
A-427; first compound 0.006325 µM
  relative viability: 0.732
A-427; first compound 0.02 µM
  relative viability: 0.716
A-427; first compound 0.06325 µM
  relative viability: 0.445
A-427; first compound 0.2 µM
  relative viability: 0.251
COR-L 105; first compound 0.002 µM
  relative viability: 0.737
COR-L 105; first compound 0.006325 µM
  relative viability: 0.647
COR-L 105; first compound 0.02 µM
  relative viability: 0.646
COR-L 105; first compound 0.06325 µM
  relative viability: 0.256
COR-L 105; first compound 0.2 µM
  relative viability: 0.295
H3255; first compound 0.002 µM
  relative viability: 0.59
H3255; first compound 0.006325 µM
  relative viability: 0.521
H3255; first compound 0.02 µM
  relative viability: 0.563
H3255; first compound 0.06325 µM
  relative viability: 0.337
H3255; first compound 0.2 µM
  relative viability: 0.253
HCC-44; first compound 0.002 µM
  relative viability: 0.981
HCC-44; first compound 0.006325 µM
  relative viability: 0.952
HCC-44; first compound 0.02 µM
  relative viability: 1.07
HCC-44; first compound 0.06325 µM
  relative viability: 0.944
HCC-44; first compound 0.2 µM
  relative viability: 0.52
HCC-827; first compound 0.002 µM
  relative viability: 0.595
HCC-827; first compound 0.006325 µM
  relative viability: 0.64
HCC-827; first compound 0.02 µM
  relative viability: 0.537
HCC-827; first compound 0.06325 µM
  relative viability: 0.143
HCC-827; first compound 0.2 µM
  relative viability: 0.167
LCLC-103H; first compound 0.002 µM
  relative viability: 0.76
LCLC-103H; first compound 0.006325 µM
  relative viability: 0.73
LCLC-103H; first compound 0.02 µM
  relative viability: 0.78
LCLC-103H; first compound 0.06325 µM
  relative viability: 0.681
LCLC-103H; first compound 0.2 µM
  relative viability: 0.809
LOU-NH91; first compound 0.002 µM
  relative viability: 0.967
LOU-NH91; first compound 0.006325 µM
  relative viability: 0.89
LOU-NH91; first compound 0.02 µM
  relative viability: 0.445
LOU-NH91; first compound 0.06325 µM
  relative viability: 0.351
LOU-NH91; first compound 0.2 µM
  relative viability: 0.348
LXF-289; first compound 0.002 µM
  relative viability: 1.01
LXF-289; first compound 0.006325 µM
  relative viability: 1.03
LXF-289; first compound 0.02 µM
  relative viability: 1.2
LXF-289; first compound 0.06325 µM
  relative viability: 0.99
LXF-289; first compound 0.2 µM
  relative viability: 0.805
NCI-H1792; first compound 0.002 µM
  relative viability: 0.4
NCI-H1792; first compound 0.006325 µM
  relative viability: 0.298
NCI-H1792; first compound 0.02 µM
  relative viability: 0.271
NCI-H1792; first compound 0.06325 µM
  relative viability: 0.0723
NCI-H1792; first compound 0.2 µM
  relative viability: 0.0503
NCI-H1793; first compound 0.002 µM
  relative viability: 0.999
NCI-H1793; first compound 0.006325 µM
  relative viability: 0.975
NCI-H1793; first compound 0.02 µM
  relative viability: 0.7
NCI-H1793; first compound 0.06325 µM
  relative viability: 0.117
NCI-H1793; first compound 0.2 µM
  relative viability: 0.167
NCI-H1915; first compound 0.002 µM
  relative viability: 0.254
NCI-H1915; first compound 0.006325 µM
  relative viability: 0.269
NCI-H1915; first compound 0.02 µM
  relative viability: 0.306
NCI-H1915; first compound 0.06325 µM
  relative viability: 0.148
NCI-H1915; first compound 0.2 µM
  relative viability: 0.124
NCI-H1944; first compound 0.002 µM
  relative viability: 0.445
NCI-H1944; first compound 0.006325 µM
  relative viability: 0.394
NCI-H1944; first compound 0.02 µM
  relative viability: 0.364
NCI-H1944; first compound 0.06325 µM
  relative viability: 0.418
NCI-H1944; first compound 0.2 µM
  relative viability: 0.33
NCI-H1975; first compound 0.002 µM
  relative viability: 0.875
NCI-H1975; first compound 0.006325 µM
  relative viability: 0.802
NCI-H1975; first compound 0.02 µM
  relative viability: 0.919
NCI-H1975; first compound 0.06325 µM
  relative viability: 0.128
NCI-H1975; first compound 0.2 µM
  relative viability: 0.156
NCI-H1993; first compound 0.002 µM
  relative viability: 1.09
NCI-H1993; first compound 0.006325 µM
  relative viability: 0.953
NCI-H1993; first compound 0.02 µM
  relative viability: 0.617
NCI-H1993; first compound 0.06325 µM
  relative viability: 0.903
NCI-H1993; first compound 0.2 µM
  relative viability: 0.39
NCI-H2023; first compound 0.002 µM
  relative viability: 0.459
NCI-H2023; first compound 0.006325 µM
  relative viability: 0.418
NCI-H2023; first compound 0.02 µM
  relative viability: 0.219
NCI-H2023; first compound 0.06325 µM
  relative viability: 0.056
NCI-H2023; first compound 0.2 µM
  relative viability: 0.0536
NCI-H2087; first compound 0.002 µM
  relative viability: 0.639
NCI-H2087; first compound 0.006325 µM
  relative viability: 0.518
NCI-H2087; first compound 0.02 µM
  relative viability: 0.559
NCI-H2087; first compound 0.06325 µM
  relative viability: 0.116
NCI-H2087; first compound 0.2 µM
  relative viability: 0.113
NCI-H2170; first compound 0.002 µM
  relative viability: 0.659
NCI-H2170; first compound 0.006325 µM
  relative viability: 0.539
NCI-H2170; first compound 0.06325 µM
  relative viability: 0.468
NCI-H2170; first compound 0.2 µM
  relative viability: 0.16
NCI-H358; first compound 0.002 µM
  relative viability: 0.637
NCI-H358; first compound 0.006325 µM
  relative viability: 0.655
NCI-H358; first compound 0.02 µM
  relative viability: 0.577
NCI-H358; first compound 0.06325 µM
  relative viability: 0.0817
NCI-H358; first compound 0.2 µM
  relative viability: 0.0712
NCI-H520; first compound 0.002 µM
  relative viability: 0.361
NCI-H520; first compound 0.006325 µM
  relative viability: 0.302
NCI-H520; first compound 0.02 µM
  relative viability: 0.227
NCI-H520; first compound 0.06325 µM
  relative viability: 0.139
NCI-H520; first compound 0.2 µM
  relative viability: 0.112
NCI-H522; first compound 0.002 µM
  relative viability: 0.757
NCI-H522; first compound 0.006325 µM
  relative viability: 0.61
NCI-H522; first compound 0.02 µM
  relative viability: 0.624
NCI-H522; first compound 0.06325 µM
  relative viability: 0.437
NCI-H522; first compound 0.2 µM
  relative viability: 0.4
SK-MES-1; first compound 0.002 µM
  relative viability: 0.713
SK-MES-1; first compound 0.006325 µM
  relative viability: 0.629
SK-MES-1; first compound 0.02 µM
  relative viability: 0.326
SK-MES-1; first compound 0.06325 µM
  relative viability: 0.17
SK-MES-1; first compound 0.2 µM
  relative viability: 0.157
SW 1573; first compound 0.002 µM
  relative viability: 0.445
SW 1573; first compound 0.006325 µM
  relative viability: 0.4
SW 1573; first compound 0.02 µM
  relative viability: 0.165
SW 1573; first compound 0.06325 µM
  relative viability: 0.101
SW 1573; first compound 0.2 µM
  relative viability: 0.0793
SW 900; first compound 0.002 µM
  relative viability: 0.688
SW 900; first compound 0.006325 µM
  relative viability: 0.81
SW 900; first compound 0.02 µM
  relative viability: 0.818
SW 900; first compound 0.06325 µM
  relative viability: 0.163
SW 900; first compound 0.2 µM
  relative viability: 0.152
